Calls of active or inactive are those of the source. No cut-off for these calls is given here.
Experiments:
[1] = target: T1, Indoleamine 2,3-dioxygenase 1 (Homo sapiens, UniProt P14902); assay: Inhibition of recombinant human IDO1 expressed in Escherichia coli
Target sequence in this assay (P14902 whole entry): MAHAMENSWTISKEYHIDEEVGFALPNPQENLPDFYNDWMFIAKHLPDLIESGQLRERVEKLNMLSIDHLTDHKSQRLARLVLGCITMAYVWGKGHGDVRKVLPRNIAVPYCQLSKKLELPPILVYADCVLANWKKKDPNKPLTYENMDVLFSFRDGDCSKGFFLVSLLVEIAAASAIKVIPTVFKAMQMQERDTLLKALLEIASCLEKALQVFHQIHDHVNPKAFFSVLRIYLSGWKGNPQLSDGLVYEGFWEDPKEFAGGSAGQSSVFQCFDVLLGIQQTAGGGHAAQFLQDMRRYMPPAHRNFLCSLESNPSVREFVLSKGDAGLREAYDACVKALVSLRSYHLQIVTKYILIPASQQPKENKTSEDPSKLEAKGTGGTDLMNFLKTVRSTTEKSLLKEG

[2] = target: T1, Indoleamine 2,3-dioxygenase 1; assay: Inhibition of recombinant human IDO1 expressed in Escherichia coli at 10 uM relative to control
Target sequence in this assay (P14902 whole entry, looked up): as the sequence (P14902 whole entry) above

[3] = target: T1, Indoleamine 2,3-dioxygenase 1; assay: Inhibition of IFNgamma-stimulated IDO1 in human HeLa cells; format: cell-based
Target sequence in this assay (P14902 whole entry): as above

[4] = target: T1, Indoleamine 2,3-dioxygenase 1; assay: Competitive inhibition of recombinant human IDO1 expressed in Escherichia coli at 1 to 4 uM using L-tryptophan as substrate
Target sequence in this assay (P14902 whole entry, looked up): as the sequence (P14902 whole entry) above

[5] = target: T1, Indoleamine 2,3-dioxygenase 1; assay: Reversible inhibition of recombinant human IDO1 expressed in Escherichia coli at 100 uM using L-tryptophan as substrate
Target sequence in this assay (P14902 whole entry, looked up): as the sequence (P14902 whole entry) above

SMILES	IC50 [1]	inhibition [2]	EC50 [3]	inhibition [4]	inhibition [5]
CC(C)(C)OC(=O)NCCc1c[nH]c2c1C(=O)C(c1ccccc1)=CC2=O	2940 nM	56.4%			
NCCc1c[nH]c2c1C(=O)C(c1cccnc1)=CC2=O	510 nM	74.9%	6620 nM		
COc1ccccc1C1=CC(=O)c2[nH]cc(CCNC(=O)OC(C)(C)C)c2C1=O	2380 nM	63.2%			
O=C1C=C(c2cccnc2)C(=O)c2c(CCNC3CCCCC3)c[nH]c21	1500 nM	65%	2540 nM		
CCNCCc1c[nH]c2c1C(=O)C(c1cccnc1)=CC2=O	160 nM	81.7%	3580 nM		
O=C1C=C(c2cccnc2)C(=O)c2c(CCNS(=O)(=O)c3ccccc3)c[nH]c21	3510 nM	59.7%	4920 nM		
CC(C)(C)OC(=O)NCCc1c[nH]c2c1C(=O)C(c1cccnc1)=CC2=O	1900 nM	66.5%	5400 nM	Active	Active
Cc1ccc(C2=CC(=O)c3[nH]cc(CCNC(=O)OC(C)(C)C)c3C2=O)cc1		25.5%			
CC(C)NCCc1c[nH]c2c1C(=O)C(c1cccnc1)=CC2=O	510 nM	63.8%	2600 nM		
CCCCNCCc1c[nH]c2c1C(=O)C(c1cccnc1)=CC2=O	880 nM	79.2%	2720 nM		
COc1ccc(C2=CC(=O)c3[nH]cc(CCNC(=O)OC(C)(C)C)c3C2=O)cc1		34.5%			
O=C(NCCc1c[nH]c2c1C(=O)C(c1cccnc1)=CC2=O)c1ccccc1	2080 nM	65.7%	5090 nM		
CC(C)(C)C(=O)NCCc1c[nH]c2c1C(=O)C(c1cccnc1)=CC2=O	770 nM	72.3%	4600 nM		
CCN(CC)CCc1c[nH]c2c1C(=O)C(c1cccnc1)=CC2=O	2260 nM	64.2%	> 10000 nM		
CC(C)(C)OC(=O)NCCc1c[nH]c2c1C(=O)C(c1ccccc1F)=CC2=O	2090 nM	67.3%			
CC(C)(C)CNCCc1c[nH]c2c1C(=O)C(c1cccnc1)=CC2=O	560 nM	79.5%	4530 nM		
CC(C)(C)OC(=O)NCCc1c[nH]c2c1C(=O)C(c1ccncc1)=CC2=O		12.4%			
CC(C)(C)OC(=O)NCCc1c[nH]c2c1C(=O)C(c1ccc(F)cc1)=CC2=O		43.3%			
O=C1C=C(c2cccnc2)C(=O)c2c(CCNCCc3ccccc3)c[nH]c21	4000 nM	68.3%	> 10000 nM		
CN(C)CCc1c[nH]c2c1C(=O)C(c1cccnc1)=CC2=O	500 nM	71.3%	4220 nM		
CC(=O)NCCc1c[nH]c2c1C(=O)C(c1cccnc1)=CC2=O	1360 nM	57.5%	> 10000 nM		
